This is an account of results in paper PMC4079689, “HIV Treatments Reduce Malaria Liver Stage Burden in a Non-Human Primate Model of Malaria Infection at Clinically Relevant Concentrations In Vivo” (PLoS ONE, 2014).

Like-named read-outs stand apart in the source and are kept apart here.

The conditions of data set [1]: Indian origin, rhesus monkey, in vivo, po.
Details of data set [2]: method as in Ibarra et al. Eur J Pharm Sci. 2012;46(5):516–21. To be noted: human historical data, LPV-RTV; ref Ibarra et al. Eur J Pharm Sci. 2012;46(5):516–21; cited from earlier work.
Data set [3] is described as follows: in vivo. To be noted: Indian origin, rhesus monkey, po; for Cmax: 50 mg/kg.
The conditions of data set [4]: human historical data, cited from earlier work.
Data set [5] can be described thus: Pharmacokinetic study, single dose by gavage, plasma HPLC-MS/MS.
The subject of data set [6] is P. knowlesi asexual blood stage parasites. The arrangement: method as in PMID 21486958. Conditions: rhesus macaques; cited from earlier work.
The mark [7] stands for this setting: TMP-SMX, ref Patel et al. 1980, Dudley et al. 1984.
Where [8] appears, read: rhesus JMF, dosing regimen LPV-RTV+TMP-SMX, sedated.
The mark [9] stands for this setting: rhesus JRH, dosing regimen LPV-RTV+TMP-SMX, awake.
Where [10] appears, read: rhesus LK8A, dosing regimen LPV-RTV alone, sedated.

In the case of `Cc1cccc(C)c1OCC(=O)N[C@@H](Cc1ccccc1)[C@@H](O)C[C@H](Cc1ccccc1)NC(=O)[C@H](C(C)C)N1CCCNC1=O` [Lopinavir], the Cmax (as a rule, the highest concentration seen after dosing) in data set [1] came to 10900 ng/mL. In addition, in data set [2], the “AUC0–24” value is 95000 ng·h/mL, the peak concentration (Cmax) is 7060 ng/mL, the T1/2 was 5.2 h and the time of peak concentration (Tmax) (usually the time from dosing to the highest level) is 3 to 6 h. Besides, in data set [3] (in vivo), the AUC(0-t) (in general, the area under the concentration-time curve up to a stated or last time point) amounted to 171000 ng·h/mL and the highest concentration (Cmax) came out at 10300 ng/mL.
In data set [1], `COc1cc(Cc2cnc(N)nc2N)cc(OC)c1OC` [Trimethoprim] yielded a Cmax of 130 ng/mL. In data set [3] (in vivo), this molecule gave an AUC(0-t) of 1730 ng·h/mL. In data set [4] (setting [7]), the T1/2 was 8 to 10 h and the time of peak concentration (Tmax) is 1 to 4 h. Besides, the “AUC0–24” value in data set [4] (dose 5 mg/kg trimethoprim and 25 mg/kg sulfamethoxazole iv, ref Dudley et al. Antimicrob Agents Chemother 1984;26:811–814) is listed as 32.6 ^2 µg*hr/mL. Also, the maximum concentration (Cmax) in data set [4] (dose 160 mg trimethoprim and 800 mg sulfamethoxazole, ref Patel et al. Clin Pharmacokinet 1980;5:405–423) was 1–2 ^1 µg/mL.
`CC(C)c1nc(CN(C)C(=O)N[C@H](C(=O)N[C@@H](Cc2ccccc2)C[C@H](O)[C@H](Cc2ccccc2)NC(=O)OCc2cncs2)C(C)C)cs1` [Ritonavir]: the “AUC0–24” value in data set [2] is 4310 ng·h/mL; in data set [5] (setting [8]) it was 11100 ng·h/mL; in data set [5] (setting [9]) it was 23200 ng·h/mL; in data set [5] (setting [10]), 37800 ng·h/mL. The T1/2 in data set [2] was 5.12 h. For the same molecule, the time of peak concentration (Tmax) in data set [2] is 3 to 6 h; in data set [5] (setting [8]), 24.0 h; in data set [5] (setting [9]), 6.0 h; in data set [5] (setting [10]), 8.0 h. In addition, in data set [3] (plasma), the Cmax is 3600 ng/mL.
For the molecule `CC(C)(C)NC(=O)[C@@H]1CN(Cc2cccnc2)CCN1C[C@@H](O)C[C@@H](Cc1ccccc1)C(=O)N[C@H]1c2ccccc2C[C@H]1O` [indinavir], the “Killing activity against P. knowlesi” value in data set [6] is “exhibited killing activity”.
